Results published in patent publication US6409809B1 (priority 1999, dated 2002).

Assay: QUV accelerated weathering exposure test of painted aluminum panels (colour fading, CIE La*b*)
Type: physicochemical
Conditions: Study I, 48 weeks; 6 hr UV/6 hr condensation cycles; mildewcide level 2.0 (% as is); phthalocyanine blue acrylic paint
Protocol: An exposure test was conducted in two studies to determine the effect of weathering (UV exposure and/or condensation) on samples of panels with paints containing chlorothalonil, tetraconazole, and chlorothalonil/tetraconazole blend additives, respectively. The panels were aluminum having a 3003 alloy mill finish. One coating (6 mils thick when wet) of the selected paint was applied to each panel and allowed to air dry for 7 days at ambient temperature. Simulated weathering was performed by exposure of the panels to a QUV accelerated weathering tester providing UVA radiation at a power consumption of 1200 Watts (110 volts, 60 Hz). The exposure was conducted in alternating and repeating 6-hour cycles, one 6-hour cycle being an ultraviolet radiation exposure cycle (conducted at 80° C.), and the other cycle being a condensation cycle wherein the panels are exposed to moisture (conducted at 60°). The results are set forth below in Table I. CIE La*b* System describes a color space wherein ‘a’ is the green(−)/[…] axis. ‘L’ is lightness; ‘C’ is chroma or saturation.

Compound: FC(F)C(F)(F)OCC(Cn1cncn1)c1ccc(Cl)cc1Cl (centres unmarked) [TCZ, Tetraconazole]
- DC vs. Blank: 1.02
- DL vs. Blank: −2.20
